Data on 28 compounds can be found in patent US20260308145A1, “CDK2 INHIBITORS AND METHODS OF USING SAME” (Shenzhen lonova Life Science Co., Ltd., priority 2023, published 2026).

Holding throughout (type): biochemical
Experiment [1] deals with T1, CDK1/cyclinB1 (Homo sapiens, UniProt P06493).
T1 construct: purchased Carna Biosciences 04-102
Nature of the experiment: Cyclin-dependent kinase activity assay (continuous ATP coupling assay), CDK1/cyclinB1. To be noted: CDK1/cyclinB1 10 nM, ATP 200 μM, Histone1 copeptide 100 μM, 15 min preincubation, pH 7.5, 1% DMSO. The protocol:
(§1) Cyclin-dependent kinase activity assay was measured by continuous ATP coupling assay in which ADP generated by kinase catalyzed phosphorylation was converted back to ATP by consuming phosphoenolpyruvate (PEP) and NADH catalyzed by pyruvate kinase/lactate dehydrogenase (PK/LDH). The assay compositions (see, Table 1) consist of one of the kinases, including CDK1/cyclinB1, CDK2/cyclinE1, CDK4/cyclinD3, and CDK6/cyclinD3 at the designated concentration, ATP at the corresponding Km of the kinase, copeptide and the ATP coupling system of PEP, NADH and PK/LDH. The assay was conducted in a reaction buffer of 20 mM Tris (pH 7.5) with 50 mM NaCl, 0.5 mM DTT and 0.04% BSA, and results were monitored continuously by fluorescence decrease of NADH with excitation at 340 nm and emission at 460 nm. Linear regression of the resulting reaction time traces gave reaction velocities.
(§2) For inhibition assay, compounds were first serial diluted in a 1:3 ratio from 10 μM to 0.05 nM using 10× reaction buffer. One of the CDK kinase was then introduced to compounds solution and incubated for 15 min. Finally, the compositions of ATP coupling system were introduced to the resulting solution to initiate the reaction. The final reaction mixture was in 1× reaction assay buffer with 1% DMSO. The half-maximal inhibition concentrations (IC50) for compounds were determined by fitting the plots of reaction velocity against compound concentration with 4-variable IC50 equation. The inhibition constants (Ki) were determined by fitting the same plots with quadratic/Morrison equation. Data were analyzed using commercially available software Graphpad Prism.
(§3) Exemplary results are presented as calculated IC50 values. • A: IC50≤10 nM • B: IC50>10 nM and IC50<100 nM • C: IC50≥100 nM

Experiment [2] addresses T2, CDK2/cyclinE1 (Homo sapiens, UniProt P24941).
T2 construct: purchased Carna Biosciences 04-165
As to the kind of experiment: Cyclin-dependent kinase activity assay (continuous ATP coupling assay), CDK2/cyclinE1. To be noted: CDK2/cyclinE1 5 nM, ATP 300 μM, Rb copeptide 100 μM, 15 min preincubation, pH 7.5, 1% DMSO. The protocol: as §1, §2, §3

For experiment [3], the target named is T3, CDK4/cyclinD3 (Homo sapiens, UniProt P11802).
T3 construct: purchased Carna Biosciences 04-105
As to the kind of experiment: Cyclin-dependent kinase activity assay (continuous ATP coupling assay), CDK4/cyclinD3. To be noted: CDK4/cyclinD3 60 nM, ATP 500 μM, Rb copeptide 500 μM, 15 min preincubation, pH 7.5, 1% DMSO. The protocol:
as §1, §2, §3

Experiment [4] deals with T4, CDK6/cyclinD3 (Homo sapiens, UniProt Q00534).
T4 construct: purchased Carna Biosciences 04-107
Nature of the experiment: Cyclin-dependent kinase activity assay (continuous ATP coupling assay), CDK6/cyclinD3. As to conditions: CDK6/cyclinD3 25 nM, ATP 500 μM, Rb copeptide 500 μM, 15 min preincubation, pH 7.5, 1% DMSO. The protocol: as §1, §2, §3

T1 sequence (P06493 whole entry): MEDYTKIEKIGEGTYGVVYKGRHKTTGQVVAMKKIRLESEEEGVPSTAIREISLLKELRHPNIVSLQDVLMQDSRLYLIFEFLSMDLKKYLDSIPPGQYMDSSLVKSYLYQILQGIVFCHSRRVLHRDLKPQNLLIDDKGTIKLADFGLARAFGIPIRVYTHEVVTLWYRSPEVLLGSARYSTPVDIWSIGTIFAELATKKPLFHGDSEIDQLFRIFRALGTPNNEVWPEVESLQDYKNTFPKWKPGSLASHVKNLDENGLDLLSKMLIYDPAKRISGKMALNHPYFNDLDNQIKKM
T1 sequence (P14635 whole entry partner): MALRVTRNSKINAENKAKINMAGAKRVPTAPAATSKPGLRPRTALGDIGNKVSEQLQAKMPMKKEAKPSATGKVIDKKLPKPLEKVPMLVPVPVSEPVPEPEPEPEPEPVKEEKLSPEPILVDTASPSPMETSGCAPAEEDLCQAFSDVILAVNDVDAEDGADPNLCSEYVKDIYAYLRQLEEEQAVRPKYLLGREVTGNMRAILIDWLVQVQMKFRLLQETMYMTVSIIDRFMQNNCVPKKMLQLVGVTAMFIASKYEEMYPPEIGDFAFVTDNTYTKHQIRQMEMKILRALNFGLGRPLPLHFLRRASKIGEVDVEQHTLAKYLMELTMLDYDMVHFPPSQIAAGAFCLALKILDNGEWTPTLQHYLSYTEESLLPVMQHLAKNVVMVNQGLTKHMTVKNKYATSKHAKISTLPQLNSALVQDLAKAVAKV
T3 sequence (P11802 whole entry): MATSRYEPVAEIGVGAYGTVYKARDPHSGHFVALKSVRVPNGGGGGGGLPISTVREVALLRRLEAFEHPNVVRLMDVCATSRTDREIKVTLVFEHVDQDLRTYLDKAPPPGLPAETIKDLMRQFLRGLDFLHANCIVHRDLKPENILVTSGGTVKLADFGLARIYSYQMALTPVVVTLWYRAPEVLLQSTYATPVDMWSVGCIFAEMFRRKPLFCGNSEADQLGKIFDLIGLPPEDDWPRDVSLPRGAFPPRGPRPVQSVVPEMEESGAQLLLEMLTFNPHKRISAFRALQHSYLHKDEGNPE
T3 sequence (P30281 whole entry partner): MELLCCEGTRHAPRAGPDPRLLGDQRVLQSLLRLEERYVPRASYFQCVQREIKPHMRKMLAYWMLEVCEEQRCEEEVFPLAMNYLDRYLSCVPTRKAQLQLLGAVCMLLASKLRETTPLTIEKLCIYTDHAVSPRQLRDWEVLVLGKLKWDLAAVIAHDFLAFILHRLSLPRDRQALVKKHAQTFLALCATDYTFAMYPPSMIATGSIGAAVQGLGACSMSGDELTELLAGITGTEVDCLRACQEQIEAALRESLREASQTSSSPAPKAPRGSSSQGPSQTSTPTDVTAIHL
T4 sequence (Q00534 whole entry): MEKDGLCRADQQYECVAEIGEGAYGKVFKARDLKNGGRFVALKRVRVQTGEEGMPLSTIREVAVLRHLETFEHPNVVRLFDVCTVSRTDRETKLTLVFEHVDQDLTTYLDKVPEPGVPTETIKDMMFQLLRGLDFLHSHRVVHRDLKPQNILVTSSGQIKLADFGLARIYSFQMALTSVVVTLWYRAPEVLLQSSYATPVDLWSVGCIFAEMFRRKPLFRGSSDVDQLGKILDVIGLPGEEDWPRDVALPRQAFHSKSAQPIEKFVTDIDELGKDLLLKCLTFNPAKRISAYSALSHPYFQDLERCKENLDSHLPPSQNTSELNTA
T4 sequence (P30281 whole entry partner): as the sequence (P30281 whole entry partner) above

As for `O=S(=O)(NCCOC(F)(F)F)c1ccc(Nc2ncc(C(F)(F)F)c(-n3cccn3)n2)cc1` [Example 128], the IC50 in experiment [1], in experiment [2], in experiment [3] and in experiment [4] was ≥ 100 nM in each case.

Take `CNS(=O)(=O)c1ccc(Nc2ncc(C(F)(F)F)c(-n3cc(C4CCN(C)C4)cn3)n2)cc1` (single isomer, unassigned) [Example 95]: the IC50 in experiment [1] was 10 to 100 nM; in experiment [2], ≤ 10 nM; in experiment [3], 10 to 100 nM; in experiment [4] it was ≥ 100 nM.

Regarding `CNS(=O)(=O)c1ccc(Nc2ncc(C(F)(F)F)c(-n3ccc(C4CC4)n3)n2)cc1` [Example 56], the IC50 in experiment [1], in experiment [2], in experiment [3] and in experiment [4] was ≥ 100 nM each time.

Consider `CNS(=O)(=O)c1ccc(Nc2ncc(C(F)F)c(-n3cccn3)n2)cc1` [Example 20], for which the IC50 in experiment [1] is ≥ 100 nM; in experiment [2], 10 to 100 nM; in experiment [3], ≥ 100 nM; in experiment [4] it was ≥ 100 nM.

Take `CNS(=O)(=O)c1ccc(Nc2ncc(C(F)(F)F)c(-n3cc(C(F)(F)F)cn3)n2)cc1` [Example 47]: the IC50 in experiment [1] is 10 to 100 nM; in experiment [2], 10 to 100 nM; in experiment [3], ≥ 100 nM; in experiment [4], ≥ 100 nM.

Take `CNS(=O)(=O)c1ccc(Nc2ncc(C(F)(F)F)c(-n3cc([C@@H]4CCC[C@H]4O)cn3)n2)cc1` (single isomer, unassigned) [Example 74]: the IC50 was ≥ 100 nM in experiment [1], 10 to 100 nM in experiment [2], 10 to 100 nM in experiment [3] and ≥ 100 nM in experiment [4].

Turning to `CCS(=O)(=O)N1CC2(CC(Nc3ncc(C(F)(F)F)c(-n4cccn4)n3)C2)C1` [Example 32, 2-(ethyldioxo-λ6-sulfanyl)-6-{[4-(pyrazol-1-yl)-5-(trifluoromethyl)pyrimidin-2-yl]amino}-2-azaspiro[3.3]heptane], the IC50 in experiment [1], in experiment [2], in experiment [3] and in experiment [4] was ≥ 100 nM throughout.

With `CNS(=O)(=O)c1ccc(Nc2ncc(C(F)(F)F)c(-n3ncc(CC(C)(C)O)c3C)n2)cc1` [Example 69], the IC50 in experiment [1] is ≥ 100 nM; in experiment [2] it was 10 to 100 nM; in experiment [3], ≥ 100 nM; in experiment [4], ≥ 100 nM.

Turning to `O=S(=O)(NCCCCO)c1ccc(Nc2ncc(C(F)(F)F)c(-n3cccn3)n2)cc1` [Example 113], the IC50 in experiment [1] was ≥ 100 nM; in experiment [2], ≤ 10 nM; in experiment [3], ≥ 100 nM; in experiment [4], ≥ 100 nM.

Regarding `CN1CCC(NS(=O)(=O)c2ccc(Nc3ncc(C(F)(F)F)c(-n4cccn4)n3)cc2)CC1` [Example 35], the 50% inhibitory concentration (IC50) in experiment [1] is ≥ 100 nM; in experiment [2], ≤ 10 nM; in experiment [3], 10 to 100 nM; in experiment [4], ≥ 100 nM.

For the compound `O=C1NCc2cc(Nc3ncc(C(F)(F)F)c(-n4cccn4)n3)ccc21` [Example 39], the IC50 in experiment [1], in experiment [2], in experiment [3] and in experiment [4] was ≥ 100 nM each time.

In the case of `CNS(=O)(=O)c1ccc(Nc2ncc(C)c(-n3cccn3)n2)cc1` [Example 22], the IC50 in experiment [1] was ≥ 100 nM; in experiment [2] it was 10 to 100 nM; in experiment [3], ≥ 100 nM; in experiment [4], ≥ 100 nM.

Consider `O=S(=O)(c1ccc(Nc2ncc(C(F)(F)F)c(-n3cccn3)n2)cc1)N1CCNCC1` [Example 37], for which the IC50 in experiment [1] was ≥ 100 nM; in experiment [2], ≤ 10 nM; in experiment [3], 10 to 100 nM; in experiment [4], 10 to 100 nM.

`CNS(=O)(=O)c1ccc(Nc2ncc(C#N)c(-n3cc(CC(C)(C)O)cn3)n2)cc1` [Example 64]: the IC50 in experiment [1] was ≥ 100 nM; in experiment [2] it was ≤ 10 nM; in experiment [3], 10 to 100 nM; in experiment [4] it was 10 to 100 nM.

Regarding `CNS(=O)(=O)c1ccc(Nc2ncc(C(F)(F)F)c(-n3cc(C4CCN(C)C4)cn3)n2)cc1` (single isomer, unassigned) [Example 96], the IC50 was 10 to 100 nM in experiment [1], ≤ 10 nM in experiment [2], 10 to 100 nM in experiment [3] and 10 to 100 nM in experiment [4].

On to `CNS(=O)(=O)c1ccc(Nc2ncc(C(F)(F)F)c(-n3cc(C4CCNCC4)cn3)n2)cc1` [Example 13], for which the IC50 in experiment [1] was 10 to 100 nM; in experiment [2], ≤ 10 nM; in experiment [3] it was 10 to 100 nM; in experiment [4], 10 to 100 nM.

As to `CNS(=O)(=O)c1ccc(Nc2ncc(C(F)(F)F)c(-n3cc([C@H]4C[C@@H](O)C4)cn3)n2)cc1` [Example 103, 4-[[4-[4-(3-hydroxycyclobutyl)pyrazol-1-yl]-5-(trifluoromethyl)pyrimidin-2-yl]amino]-N-methyl-benzene sulfonamide], the IC50 in experiment [1] is 10 to 100 nM; in experiment [2], ≤ 10 nM; in experiment [3], 10 to 100 nM; in experiment [4], 10 to 100 nM.

Take `CNS(=O)(=O)c1ccc(Nc2ncc(C(F)(F)F)c(-n3cc([C@H]4CC[C@H](O)C4)cn3)n2)cc1` (single isomer, unassigned) [Example 79]: the IC50 in experiment [1] was 10 to 100 nM; in experiment [2], ≤ 10 nM; in experiment [3], 10 to 100 nM; in experiment [4] it was 10 to 100 nM.

Turning to `CNS(=O)(=O)c1ccc(Nc2ncc(Cl)c(-n3cc(CC(C)(C)O)cn3)n2)cc1` [Example 65], the IC50 was 10 to 100 nM in experiment [1], ≤ 10 nM in experiment [2], 10 to 100 nM in experiment [3] and 10 to 100 nM in experiment [4].

Turning to `CNS(=O)(=O)c1ccc(Nc2ncc(C(F)(F)F)c(-n3cc(CC(C)(C)O)cn3)n2)cc1` [Example 2, 4-((4-(4-(2-hydroxy-2-methylpropyl)-1H-pyrazol-1-yl)-5-(trifluoromethyl)pyrimidin-2-yl)amino)-N-methylbenzenesulfonamide], the IC50 in experiment [1] was 10 to 100 nM; in experiment [2], ≤ 10 nM; in experiment [3] it was 10 to 100 nM; in experiment [4] it was 10 to 100 nM.

For the compound `CNS(=O)(=O)c1ccc(Nc2ncc(C(F)(F)F)c(-n3cc(C4CNC4)cn3)n2)cc1` [Example 15], the IC50 in experiment [1] is 10 to 100 nM; in experiment [2] it was ≤ 10 nM; in experiment [3], 10 to 100 nM; in experiment [4] it was 10 to 100 nM.

Consider `CNS(=O)(=O)c1ccc(Nc2ncc(C(F)(F)F)c(-n3cc(CC(C)C)cn3)n2)cc1` [Example 48], for which the IC50 was ≥ 100 nM in experiment [1], 10 to 100 nM in experiment [2], ≤ 10 nM in experiment [3] and 10 to 100 nM in experiment [4].

Turning to `CC(C)(O)Cc1cnn(-c2nc(Nc3ccc(S(=O)(=O)NC4CC4)cc3)ncc2C(F)(F)F)c1` [Example 73], the IC50 in experiment [1] was ≥ 100 nM; in experiment [2], 10 to 100 nM; in experiment [3] it was 10 to 100 nM; in experiment [4], 10 to 100 nM.

Regarding `CNS(=O)(=O)c1ccc(Nc2ncc(C(F)(F)F)c(-n3cc(C4(C#N)CC4)cn3)n2)cc1` [Example 51, 4-[[4-[4-(1-cyanocyclopropyl)pyrazol-1-yl]-5-(trifluoromethyl)pyrimidin-2-yl]amino]-N-methyl-benzene sulfonamide], the IC50 in experiment [1] is ≥ 100 nM; in experiment [2], 10 to 100 nM; in experiment [3], ≥ 100 nM; in experiment [4], ≥ 100 nM.

Turning to `CN1CCC(N2CCN(c3ccc(Nc4ncc(C(F)(F)F)c(-n5cccn5)n4)cc3)CC2)CC1` [Example 33], the IC50 in experiment [1], in experiment [2], in experiment [3] and in experiment [4] was ≥ 100 nM in each case.

Turning to `CNS(=O)(=O)c1ccc(Nc2ncc(C(F)(F)F)c(-n3cc(C4CC4)cn3)n2)cc1` [Example 50], the IC50 in experiment [1] was ≥ 100 nM; in experiment [2] it was ≤ 10 nM; in experiment [3] it was 10 to 100 nM; in experiment [4], 10 to 100 nM.

`CNS(=O)(=O)c1ccc(Nc2ncc(C(F)(F)F)c(-n3cc([C@H]4CCC[C@H]4O)cn3)n2)cc1` (single isomer, unassigned) [Example 77]: the IC50 in experiment [1] is 10 to 100 nM; in experiment [2], 10 to 100 nM; in experiment [3] it was 10 to 100 nM; in experiment [4], ≥ 100 nM.

As to `CNS(=O)(=O)c1ccc(Nc2ncc(C(F)(F)F)c(-n3cc([C@H]4CCC[C@@H]4O)cn3)n2)cc1` (single isomer, unassigned) [Example 75], the IC50 in experiment [1] was ≥ 100 nM; in experiment [2] it was 10 to 100 nM; in experiment [3] it was 10 to 100 nM; in experiment [4] it was ≥ 100 nM.

The term IC50 denotes the concentration needed to halve the response being measured.
